Measured values reported in patent US7348332B2, “(3,4-dihydro-quinazolin-2-yl)-indan-1-yl-amines” (Hoffmann-La Rochse Inc., priority 2005, dated 2008).

Each compound was assayed against T1, recombinant human 5-HT5A receptor (Homo sapiens, UniProt P47898) (assay: [3H]LSD radioligand binding assay, membranes from HEK-EBNA cells transiently expressing 5-HT5A receptors). Conditions: [3H]LSD approximately 1 nM; HEK-EBNA cell membranes; SPA beads; 120 min at room temperature; Ki from IC50 by Cheng-Prussoff equation.
T1 construct: expressed in transfected cells; host or cells: HEK-EBNA (Human Embryonic Kidney-EBNA) cells, transient cDNA expression; membranes
T1 sequence (P47898 whole entry): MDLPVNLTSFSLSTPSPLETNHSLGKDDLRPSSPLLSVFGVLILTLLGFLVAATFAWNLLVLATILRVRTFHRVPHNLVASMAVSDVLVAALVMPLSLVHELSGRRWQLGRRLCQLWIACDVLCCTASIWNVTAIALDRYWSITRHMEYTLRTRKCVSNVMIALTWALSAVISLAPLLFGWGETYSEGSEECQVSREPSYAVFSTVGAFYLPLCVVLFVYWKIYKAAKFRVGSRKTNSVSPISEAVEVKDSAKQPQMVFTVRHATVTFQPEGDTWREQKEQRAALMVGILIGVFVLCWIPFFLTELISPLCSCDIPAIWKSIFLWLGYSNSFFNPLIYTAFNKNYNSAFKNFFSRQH
Protocol: A [^3H]LSD radioligand binding assay was used to determine the affinity of the compounds for the recombinant human 5-HT5A receptor, in membranes from transiently (cDNA) expressed 5-HT5A receptors in Human Embryonic Kidney-EBNA (HEK-EBNA) cells. Assay buffer consisted of Tris (50 mM) buffer containing 1 mM EGTA, 10 mM MgCl2 (pH 7.4) and 10 μM pargyline. The binding assay was carried out in 96-well-plates in the presence of [^3H]LSD (approximately 1 nM), approximately 2 μg/well of membrane protein, and 0.5 mg of Ysi-poly-1-lysine SPA beads in a final volume of 200 μl of buffer. Non-specific binding was defined using methiothepin 2 μM. Compounds were tested at 10 concentrations. All assays were conducted in duplicate and repeated at least two times. Assay plates were incubated for 120 min at room temperature before centrifugation. Bound ligand was determined using a Packard Topcount scintillation counter. IC50 values were calculated using a non-linear curve fitting program and Ki values calculated using the Cheng-Prussoff equation.
With Clc1ccc(Cl)c(C2NC(NC3CCc4ccccc43)=Nc3ccccc32)c1 (stereo in doubt) [Example 19, [4-(2,5-Dichloro-phenyl)-3,4-dihydro-quinazolin-2-yl]-(S)-indan-1-yl-amine] the Ki was 550 nM. Work on Clc1ccc(Cl)c(C2NC(NC3CCc4ccccc43)=Nc3ccccc32)c1 (stereo in doubt) [Example 20, [4-(2,5-Dichloro-phenyl)-3,4-dihydro-quinazolin-2-yl]-(R)-indan-1-yl-amine] yielded a Ki of 550 nM. For Clc1ccc2c(c1)C(c1ccccc1Cl)NC(NC1CCc3ccccc31)=N2 (stereo in doubt) [Example 21, [6-Chloro-4-(2-chloro-phenyl)-3,4-dihydro-quinazolin-2-yl]-(S)-indan-1-yl-amine], the Ki was 595 nM. In the case of Clc1ccc2c(c1)C(c1ccccc1Cl)NC(NC1CCc3ccccc31)=N2 (stereo in doubt) [Example 22, [6-Chloro-4-(2-chloro-phenyl)-3,4-dihydro-quinazolin-2-yl]-(R)-indan-1-yl-amine], the Ki is reported as 655 nM. For c1ccc2c(c1)CNC(N[C@@H]1CCc3ccccc31)=N2 [Example 1, (3,4-Dihydro-quinazolin-2-yl)-(R)-indan-1-yl-amine], the Ki was 25 nM. Work on Clc1cccc2c1CNC(NC1CCc3ccccc31)=N2 (centres unmarked) [Example 2, (5-Chloro-3,4-dihydro-quinazolin-2-yl)-indan-1-yl-amine] yielded a Ki of 32 nM. Cc1cccc2c1N=C(NC1CCc3ccccc31)NC2 (centres unmarked) [Example 3, Indan-1-yl-(8-methyl-3,4-dihydro-quinazolin-2-yl)-amine] showed a Ki of 32 nM. Work on Fc1ccc2c(c1)CNC(NC1CCc3ccccc31)=N2 (centres unmarked) [Example 4, (6-Fluoro-3,4-dihydro-quinazolin-2-yl)-indan-1-yl-amine] yielded a Ki of 35 nM. Compound Clc1ccc2c(c1Cl)CNC(NC1CCc3ccccc31)=N2 (centres unmarked) [Example 5, (5,6-Dichloro-3,4-dihydro-quinazolin-2-yl)-indan-1-yl-amine] has a Ki of 39 nM. In the case of Fc1cccc2c1CNC(NC1CCc3ccccc31)=N2 (centres unmarked) [Example 6, (5-Fluoro-3,4-dihydro-quinazolin-2-yl)-indan-1-yl-amine], the Ki is reported as 48 nM. Cc1ccc2c(c1)CNC(NC1CCc3ccccc31)=N2 (centres unmarked) [Example 7, Indan-1-yl-(6-methyl-3,4-dihydro-quinazolin-2-yl)-amine] showed a Ki of 50 nM. With Cc1cccc2c1CNC(NC1CCc3ccccc31)=N2 (centres unmarked) [Example 8, Indan-1-yl-(5-methyl-3,4-dihydro-quinazolin-2-yl)-amine] the Ki was 55 nM. Compound CC1NC(NC2CCc3ccccc32)=Nc2ccccc21 (centres unmarked) [Example 9, Indan-1-yl-(4-methyl-3,4-dihydro-quinazolin-2-yl)-amine] has a Ki of 80 nM. CC1NC(NC2CCc3ccccc32)=Nc2cc(Cl)c(Cl)cc21 (centres unmarked) [Example 10, (6,7-Dichloro-4-methyl-3,4-dihydro-quinazolin-2-yl)-indan-1-yl-amine] showed a Ki of 71 nM. In the case of COc1ccc2c(c1)CNC(NC1CCc3ccccc31)=N2 (centres unmarked) [Example 11, Indan-1-yl-(6-methoxy-3,4-dihydro-quinazolin-2-yl)-amine], the Ki is reported as 125 nM. In the case of Clc1ccc2c(c1)N=C(NC1CCc3ccccc31)NC2 (centres unmarked) [Example 12, (7-Chloro-3,4-dihydro-quinazolin-2-yl)-indan-1-yl-amine], the Ki is reported as 174 nM. Work on FC(F)(F)c1ccc2c(c1)N=C(NC1CCc3ccccc31)NC2 (centres unmarked) [Example 13, Indan-1-yl-(7-trifluoromethyl-3,4-dihydro-quinazolin-2-yl)-amine] yielded a Ki of 260 nM. c1ccc(C2NC(NC3CCc4ccccc43)=Nc3ccccc32)cc1 (centres unmarked) [Example 14, Indan-1-yl-(4-phenyl-3,4-dihydro-quinazolin-2-yl)-amine] was tested, and the Ki was 310 nM. For COc1ccc2c(c1)N=C(NC1CCc3ccccc31)NC2 (centres unmarked) [Example 15, Indan-1-yl-(7-methoxy-3,4-dihydro-quinazolin-2-yl)-amine], the Ki was 310 nM. With COc1cc2c(cc1OC)N=C(NC1CCc3ccccc31)NC2 (centres unmarked) [Example 16, (6,7-Dimethoxy-3,4-dihydro-quinazolin-2-yl)-indan-1-yl-amine] the Ki was 350 nM. For c1ccc2c(c1)CNC(N[C@H]1CCc3ccccc31)=N2 [Example 17, (3,4-Dihydro-quinazolin-2-yl)-(S)-indan-1-yl-amine], the Ki was 350 nM. Clc1ccc2c(c1)C(c1ccccc1)NC(NC1CCc3ccccc31)=N2 (centres unmarked) [Example 18, (6-Chloro-4-phenyl-3,4-dihydro-quinazolin-2-yl)-indan-1-yl-amine] showed a Ki of 410 nM. Work on c1ccc2c(c1)CC[C@H]2NC1=Nc2ccccc2C(c2ccsc2)N1 (stereo partly drawn) [Example 23, (R)-Indan-1-yl-(4-thiophen-3-yl-3,4-dihydro-quinazolin-2-yl)-amine] yielded a Ki of 133 nM. Work on c1ccc2c(c1)CC[C@@H]2NC1=Nc2ccccc2C(c2ccsc2)N1 (stereo partly drawn) [Example 24, (S)-Indan-1-yl-(4-thiophen-3-yl-3,4-dihydro-quinazolin-2-yl)-amine] yielded a Ki of 293 nM. Cc1noc(C)c1C1NC(N[C@@H]2CCc3ccccc32)=Nc2ccccc21 (stereo partly drawn) [Example 25, [4-(3,5-Dimethyl-isoxazol-4-yl)-3,4-dihydro-quinazolin-2-yl]-(R)-indan-1-yl-amine] gave a Ki of 863 nM. Work on Cc1noc(C)c1C1NC(N[C@H]2CCc3ccccc32)=Nc2ccccc21 (stereo partly drawn) [Example 26, [4-(3,5-Dimethyl-isoxazol-4-yl)-3,4-dihydro-quinazolin-2-yl]-(S)-indan-1-yl-amine] yielded a Ki of 1200 nM.
